Measurements from patent publication US20260042772A1, “FURO PYRIMIDINE DERIVATES” (Merck Patent GmbH, priority 2022, published 2026).
Where two headings read alike, the source gives them in different places.

Tests used:
[1] = test system: sensitive (NF54) strains of P. falciparum; test: In vitro P. falciparum assay, modified [3H]hypoxanthine incorporation assay; type: cell-based; conditions: Plasmodium falciparum, NF54 strain
From the text: Compounds according to the present invention were screened against sensitive (NF54) strains of P. falciparum in vitro using the modified [3H]hypoxanthine incorporation assay. (Vennerstrom, J. L.; Arbe-Barnes, S.; Brun, R.; Charman, S. A.; Chiu, F. C. K.; Chollet, J.; Dong, Y.; Dorn, A.; Hunziker, D.; Matile, H.; McIntosh, K.; Padmanilayam, M.; Tomas, J. S.; Scheurer, C.; Scorneaux, B.; Tang, Y.; Urwyler, H.; Wittlin, S. and Charman, W. N. Identification of an Antimalarial Synthetic Trioxolane Drug Development Candidate. Nature, 2004, 430, 900-904.).
Compound concentrations at which growth of P. falciparum was inhibited by 50% compared to untreated controls was measured in nM (IC50).
Compound concentrations at which growth of P. falciparum was inhibited by 50% compared to untreated controls was measured in nM (IC50) as described above (PfNF54 IC50 (nM)).

human PI4Kβ (HuPI4Kβ) = human PI4Kβ (HuPI4Kβ) (Homo sapiens (Human), UniProt Q9UBF8); test: HuPI4Kβ lipid kinase inhibition, ADP-Glo Kinase Assay; type: biochemical; conditions: recombinant enzyme
Sequence of human PI4Kβ (HuPI4Kβ) (Q9UBF8 whole entry): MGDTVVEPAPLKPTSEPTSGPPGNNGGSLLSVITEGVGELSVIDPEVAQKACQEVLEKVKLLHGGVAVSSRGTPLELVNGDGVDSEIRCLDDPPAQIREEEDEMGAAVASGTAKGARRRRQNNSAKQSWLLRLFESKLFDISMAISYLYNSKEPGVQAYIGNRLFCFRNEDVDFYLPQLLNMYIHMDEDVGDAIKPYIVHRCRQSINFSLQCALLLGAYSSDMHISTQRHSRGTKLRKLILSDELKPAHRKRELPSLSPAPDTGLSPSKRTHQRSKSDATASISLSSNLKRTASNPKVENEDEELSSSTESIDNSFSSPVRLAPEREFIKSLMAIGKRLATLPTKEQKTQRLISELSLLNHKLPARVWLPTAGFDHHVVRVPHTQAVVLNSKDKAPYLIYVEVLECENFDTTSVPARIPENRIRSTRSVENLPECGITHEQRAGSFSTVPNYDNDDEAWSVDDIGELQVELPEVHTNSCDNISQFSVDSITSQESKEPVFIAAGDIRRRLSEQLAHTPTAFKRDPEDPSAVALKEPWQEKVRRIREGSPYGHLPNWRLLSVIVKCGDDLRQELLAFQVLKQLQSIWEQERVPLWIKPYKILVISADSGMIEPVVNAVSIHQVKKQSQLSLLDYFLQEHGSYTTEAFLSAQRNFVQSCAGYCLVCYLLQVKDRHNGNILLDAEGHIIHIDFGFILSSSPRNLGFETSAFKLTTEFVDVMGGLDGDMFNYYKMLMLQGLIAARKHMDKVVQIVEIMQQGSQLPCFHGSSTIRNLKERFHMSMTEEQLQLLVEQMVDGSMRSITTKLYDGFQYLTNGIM
Procedure: To further test the impact of compounds according to the present invention on human PI4Kβ, HuP[…]β inhibition was tested for selected compounds and contrasted with the results for inhibiting PfNF54 strains as described in the example above. The lipid kinase reaction is performed by incubating lipid substrate (PI:3PS or PIP2:3PS) with a recombinant enzyme and ATP, and the kinase activity is measured using the ADP-GloTM Kinase Assay. First, the kinase reaction is terminated, and any ATP remaining after the reaction is depleted, leaving only ADP. Then the Kinase Detection Reagent is added to convert ADP to ATP, which is used in a coupled luciferin/luciferase reaction. The luminescent output is measured and is correlated with kinase activity. The assays can be performed in 96- or 384-well plates and can be used for enzyme characterization, inhibitor screening or compound profiling. Results measuring the effect of compounds on HuP[…]β are reported in table 2 in nM (IC50) describing the concentration necessary to inhibit 50% of the enzyme's activity (HuP[…]β IC50 (nM)).

[2] = test system: chloroquine sensitive (CQS) strain (NF54) of P. falciparum; test: In vitro antiplasmodial activity, Assay A (parasite lactate dehydrogenase assay); type: cell-based; conditions: Plasmodium falciparum
Procedure: Test samples were screened for in vitro antiplasmodial activity against a chloroquine sensitive (CQS) strain (NF54) of the malaria parasite P. falciparum. Continuous in vitro cultures of asexual erythrocyte stages of P. falciparum were maintained using a modified version of the method of Trager and Jensen (1976).1 Quantitative assessment of antiplasmodial activity in vitro was determined via the parasite lactate dehydrogenase assay using a modified method described by Makler (1993). The test samples were tested in triplicate on two separate occasions. Further dilutions were prepared in complete medium on the day of the experiment. Samples were tested as a suspension if not completely dissolved. Chloroquine and artesunate were used as the reference drugs. A full dose-response were performed starting at a concentration of 3000 nM, which is then serially diluted 2-fold in complete medium to give 10 concentrations; with the lowest concentration being approximately 6 nM. The same dilution techniques were used for all samples. References were tested at a starting concentration of 1000 ng/mL. The highest concentration of solvent to which the parasites were exposed has no measurable effect on the parasite viability (data not shown).

[3] = test system: P. vivax liver-stage hypnozoites; test: In vitro P. vivax liver-stage assay in primary human hepatocytes, radical cure mode: hypnozoites; type: cell-based; conditions: Plasmodium vivax, Hepatocyte, infected primary human hepatocytes, read-out: Pv Hypnozoite IC50
Procedure: (§1) Compound efficacy against P. vivax liver-stage schizonts and hypnozoites is evaluated in infected primary human hepatocytes (PHHs). Compound screening is performed in 384-well plates, in a 12-point dose response, from 50 μM. All compounds are tested in radical cure mode (RCM). PHHs are seeded onto 384-well plates two days prior to P. vivax sporozoite infection. In RCM, compounds are added to the culture for three days, from day 5 post infection, in duplicate wells. Nigericin and a PI4K inhibitor (KDU691) are used as positive controls in each assay, while solvent (DMSO) without added compound serves as a negative control. Daily medium changes are performed, and the culture is fixed on day twelve post infection to ensure complete parasite clearance. Fixed cells are permeabilized and stained with an anti-UIS4 primary antibody and a fluorescent secondary antibody. Liver-stage schizonts and hypnozoites are then quantified by High Content Imaging. Roth, A., et al. A comprehensive model for assessment of liver stage therapies targeting Plasmodium vivax and Plasmodium falciparum. Nat. Commun. 2018, 9(1), 1837. doi.org/10.1038/s41467-018-04221-9.

[4] = test system: P. vivax liver-stage schizonts; test: In vitro P. vivax liver-stage assay in primary human hepatocytes, radical cure mode: schizonts; type: cell-based; conditions: Plasmodium vivax, Hepatocyte, infected primary human hepatocytes, read-out: Pv Schizont IC50
Procedure: as §1

[5] = test system: CQC sensitive strain (NF54) of P. falciparum; test: In vitro antiplasmodial activity, Assay B (as described by Vennerstrom et al. 2004); type: cell-based; conditions: Plasmodium falciparum; NF54, Vennerstrom et al. method
Procedure: Compounds were screened against CQC sensitive strain (NF54) of P. falciparum in vitro as described by Vennerstrom et al. (2004). A full dose-response were performed starting at a concentration of 3000 nM, which is then serially diluted 2-fold in complete medium to give 10 concentrations; with the lowest concentration being approximately 6 nM. The same dilution techniques were used for all samples. References were tested at a starting concentration of 1000 ng/mL. The highest concentration of solvent to which the parasites were exposed has no measurable effect on the parasite viability (data not shown).

[6] = growth inhibition, Table 2, read-out: PfNF54 IC50
[7] = [3H]hypoxanthine incorporation, read-out: In vitro P. falciparum growth inhibition IC50

IC50 (human PI4Kβ (HuPI4Kβ))	IC50 [2]	IC50 [5]	Compound	IC50 [1, 6]	IC50 [3]	IC50 [1, 7]	IC50 [4]
	< 15 nM	< 15 nM	CC(C)(O)c1cccc(-c2ncnc3cc(-c4ccc(S(C)(=N)=O)cc4)oc23)c1F (centres unmarked) [Compound D203, (4-(4-(2-fluoro-3-(2-hydroxypropan-2-yl)phenyl)furo[3,2-d]pyrimidin-6-yl)phenyl)(imino)(methyl)-λ6-sulfanone]		15 to 50 nM	< 10 nM	< 15 nM
		< 15 nM	CN1CCN(C(=O)c2ccc(-c3cc4ncnc(-c5cccc(C(C)(C)O)c5F)c4o3)cc2)CC1 [Compound D204, (4-(4-(2-fluoro-3-(2-hydroxypropan-2-yl)phenyl)furo[3,2-d]pyrimidin-6-yl)phenyl)(4-methylpiperazin-1-yl)methanone]			< 10 nM	
	< 15 nM		CC(C)(O)c1cccc(-c2ncnc3cc(-c4ccc([S@@](C)(=N)=O)cc4)oc23)c1F [Compound D209, (S)-(4-(4-(2-fluoro-3-(2-hydroxypropan-2-yl)phenyl)furo[3,2-d]pyrimidin-6-yl)phenyl)(imino)(methyl)-λ^6-sulfanone]			< 10 nM	
	< 15 nM		CC(C)(O)c1cccc(-c2ncnc3cc(-c4ccc([S@](C)(=N)=O)cc4)oc23)c1F [Compound D210, (R)-(4-(4-(2-fluoro-3-(2-hydroxypropan-2-yl)phenyl)furo[3,2-d]pyrimidin-6-yl)phenyl)(imino)(methyl)-λ^6-sulfanone]			< 10 nM	
	< 15 nM		CC(C)(O)c1cccc(-c2ncnc3cc(-c4ccc(S5(=O)=NCCC5)cc4)oc23)c1F (centres unmarked) [Compound D212, 1-(4-(4-(2-fluoro-3-(2-hydroxypropan-2-yl)phenyl)furo[3,2-d]pyrimidin-6-yl)phenyl)-4,5-dihydro-3H-isothiazole 1-oxide]			< 10 nM	
	< 15 nM	< 15 nM	CC(C)(O)c1nccc(-c2ncnc3cc(-c4ccc(S(C)(=O)=O)cc4)oc23)c1F [Compound P31, 2-(3-fluoro-4-(6-(4-(methylsulfonyl)phenyl)furo [3,2-d]pyrimidin-4-yl)pyridin-2-yl)propan-2-ol]				

Second part, the compound before the results:

Compound	IC50 (human PI4Kβ (HuPI4Kβ))	IC50 [2]	IC50 [5]	IC50 [1, 6]	IC50 [3]	IC50 [1, 7]	IC50 [4]
CC(C)(O)c1cc(-c2ncnc3cc(-c4ccc(C(=O)N5CCOCC5)cc4)oc23)ccn1 [Compound C74, (4-{4-[2-(1-Hydroxy-1-methyl-ethyl)-pyridin-4-yl]-furo[3,2-d]pyrimidin-6-yl}-phenyl)-morpholin-4-yl-methanone]	> 500 nM			10 to 50 nM			
C[C@@H]1COCCN1C(=O)c1ccc(-c2cc3ncnc(-c4ccnc(C(C)(C)O)c4)c3o2)cc1 [Compound C75, (4-{4-[2-(1-Hydroxy-1-methyl-ethyl)-pyridin-4-yl]-furo[3,2-d]pyrimidin-6-yl}-phenyl)-((R)-3-methyl-morpholin-4-yl)-methanone]	> 500 nM			< 10 nM			
C[C@@H]1CN(C(=O)c2ccc(-c3cc4ncnc(-c5ccnc(C(C)(C)O)c5)c4o3)cc2)C[C@H](C)O1 [Compound C76, 2-[4-(6-{4-[(2R,6S)-2,6-dimethylmorpholine-4-carbonyl]phenyl}furo[3,2-d]pyrimidin-4-yl)pyridin-2-yl]propan-2-ol]	> 500 nM			< 10 nM			
CN1CCN(C(=O)c2ccc(-c3cc4ncnc(-c5ccnc(C(C)(C)O)c5)c4o3)cc2)CC1 [Compound C77, 2-(4-{6-[4-(4-methylpiperazine-1-carbonyl)phenyl]furo[3,2-d]pyrimidin-4-yl}pyridin-2-yl)propan-2-ol]	> 500 nM			10 to 50 nM			
CC(C)(O)c1cccc(-c2ncnc3cc(-c4ccc(S(C)(=O)=O)cc4)oc23)c1F [Compound D149, 2-(2-fluoro-3-(6-(4-(methylsulfonyl)phenyl)furo [3,2-d]pyrimidin-4-yl)phenyl)propan-2-ol]	100 to 500 nM	< 15 nM	< 15 nM	< 10 nM	< 15 nM	< 10 nM	< 15 nM
CC(C)(O)c1cc(-c2ncnc3cc(-c4ccc(S(C)(=O)=O)cc4)oc23)cc(F)n1 [Compound D150, 2-(6-fluoro-4-(6-(4-(methylsulfonyl)phenyl)furo [3,2-d]pyrimidin-4-yl)pyridin-2-yl)propan-2-ol]		> 50 nM	15 to 50 nM			10 to 50 nM	
CC(C)(O)c1cccc(-c2ncnc3cc(-c4ccc(C(=O)N5CCOCC5)cc4)oc23)c1F [Compound D183, (4-(4-(2-fluoro-3-(2-hydroxypropan-2-yl)phenyl)furo[3,2-d]pyrimidin-6-yl)phenyl)(morpholino) methanone]	100 to 500 nM	< 15 nM	< 15 nM	< 10 nM	< 15 nM	< 10 nM	< 15 nM
CC(C)(O)c1cccc(-c2ncnc3cc(-c4ccc(C(=O)N5C[C@@H]6C[C@H]5CO6)cc4)oc23)c1F [Compound D197, ((1S,4S)-2-oxa-5-azabicyclo[2.2.1]heptan-5-yl)(4-(4-(2-fluoro-3-(2-hydroxypropan-2-yl)phenyl)furo[3,2-d]pyrimidin-6-yl)phenyl)methanone]	100 to 500 nM	< 15 nM	< 15 nM	< 10 nM		< 10 nM	
CC(C)(O)c1cccc(-c2ncnc3cc(-c4ccc(C(=O)O)cc4)oc23)c1F [Compound D201, 4-(4-(2-fluoro-3-(2-hydroxypropan-2-yl)phenyl)furo[3,2-d]pyrimidin-6-yl)benzoic acid]		15 to 50 nM	15 to 50 nM		15 to 50 nM		< 15 nM
CC(C)(O)c1cccc(-c2ncnc3cc(-c4ccc(S5(=O)=NCCCC5)cc4)oc23)c1F (centres unmarked) [Compound D211, 1-(4-(4-(2-fluoro-3-(2-hydroxypropan-2-yl)phenyl)furo[3,2-d]pyrimidin-6-yl)phenyl)-3,4,5,6-tetrahydro-1,2-thiazine 1-oxide]						< 10 nM	
CC(C)(O)c1cc(-c2ncnc3cc(-c4ccc(S(C)(=O)=O)cc4)oc23)ccn1 [Compound D213, 2-(4-(6-(4-(methylsulfonyl)phenyl)furo [3,2-d]pyrimidin-4-yl)pyridin-2-yl)propan-2-ol]					> 50 nM	10 to 50 nM	< 15 nM
